Assay [1] has as its system MCF7 cells expressing mutant estrogen receptor Asp 538 Gly. Briefly: Test B: cell proliferation/viability assay (CellTiter-Glo) on MCF7 Asp 538 Gly mutant. It is filed as cell-based. As to conditions: Homo sapiens, MCF7, 168 h, MCF7 cells expressing ER Asp 538 Gly mutant, 7 days of compound exposure, read-out: proliferation MCF7 D538G IC50. Summed up: (§1)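 Parental MCF7 or MCF7 lines transfected with Tyr 537 Ser or Asp 538 Gly ER mutants (selected for estradiol-independent growth) were grown in phenol red-free MEM with 5% charcoal dextran-stripped FBS. Cells were treated with 9-point 1:5 dilutions (3-0.000001 μM final) for 7 days, then read by CellTiter-Glo luminescence.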

Assay [2] relates to MCF7 cells expressing mutant estrogen receptor Tyr 537 Ser. Briefly: Test B: cell proliferation/viability assay (CellTiter-Glo) on MCF7 Tyr 537 Ser mutant. In kind it is cell-based. As to conditions: Homo sapiens, MCF7, 168 h, MCF7 cells expressing ER Tyr 537 Ser mutant, 7 days of compound exposure, read-out: proliferation MCF7 Y537S IC50. Summed up:
as §1
(In general: In ATP-based viability assays light output follows the ATP content of the culture.)

For assay [3], the target named is His6-ERα298-554 Y537S mutant (ERα ligand-binding domain) (Homo sapiens (Human), UniProt P03372, Y537S). As to the kind of experiment: Test A: biochemical antagonist activity, LanthaScreen TR-FRET ERα coactivator assay, Y537S mutant. As to conditions: asterisk (*): protocol using 10 nM estradiol; read-out: Antagonism Y537S IC50. Summed up:
(§2)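 His6-ERα LBD (aa 298–554), 0.5 nM, with Tb-anti-His6 antibody, 250 nM PGC1a peptide and 3 nM (or 10 nM) estradiol in pH 7.4 potassium phosphate/DTT buffer; incubated with compound overnight at room temperature. IC50 from 4-parameter logistic fit of TR-FRET 520:495 nm ratio.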
In general terms: In TR-FRET formats the signal depends on donor and acceptor labels being close together.

The target of assay [4] is His6-ERα298-554 D538G mutant (ERα ligand-binding domain) (Homo sapiens (Human), UniProt P03372, D538G). Briefly: Test A: biochemical antagonist activity, LanthaScreen TR-FRET ERα coactivator assay, D538G mutant. As to conditions: asterisk (*): protocol using 10 nM estradiol; read-out: Antagonism D538G IC50. Summed up:
as §2

The target in the next assay is ERα in MCF7 cells (Homo sapiens (Human), UniProt P03372). Briefly: Test C: estrogen receptor degradation activity, ERα in cell western assay in MCF7 cells. It is filed as cell-based. As to conditions: for DC50: 4 hours post compound addition, ERα in cell western, read-out: Degradation IC50; for % Degradation at 3 μM: 4 hours, relative to fulvestrant. Summed up: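 MCF7 cells in phenol red-free MEM alpha with 5% charcoal-dextran stripped FBS were treated 4 h with compound (9-point 1:5 dilutions, 3–0.000018 μM final; fulvestrant 0.1 μM as positive control). Fixed cells were immunostained for ERα (Alexa 488) and counterstained with Syto-64 for DNA.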

Assay [5] deals with MCF7 cells (breast tumor cells) WT. Briefly: Test B: cell proliferation/viability assay (CellTiter-Glo) on MCF7 WT. In kind it is cell-based. As to conditions: Homo sapiens, MCF7, 168 h, 7 days of compound exposure. Summed up: as §1
The target in assay [6] is His6-ERα298-554 WT (ERα ligand-binding domain) (Homo sapiens (Human), UniProt P03372). As to the kind of experiment: Test A: biochemical antagonist activity, LanthaScreen TR-FRET ERα coactivator assay, WT. As to conditions: asterisk (*): protocol using 10 nM estradiol; read-out: Antagonism WT IC50. The gist of the method:
as §2

His6-ERα298-554 WT (ERα ligand-binding domain), sequence (P03372 298-554): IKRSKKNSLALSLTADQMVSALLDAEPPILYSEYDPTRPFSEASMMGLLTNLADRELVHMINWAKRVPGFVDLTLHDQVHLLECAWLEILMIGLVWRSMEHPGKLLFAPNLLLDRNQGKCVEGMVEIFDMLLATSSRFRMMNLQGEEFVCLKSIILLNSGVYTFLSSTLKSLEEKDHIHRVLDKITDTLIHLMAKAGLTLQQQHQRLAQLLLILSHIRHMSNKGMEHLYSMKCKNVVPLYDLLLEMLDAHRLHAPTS
His6-ERα298-554 D538G mutant (ERα ligand-binding domain), sequence (P03372 298-554 D538G): as the sequence (P03372 298-554) above, with D241G counted along it
ERα in MCF7 cells, sequence (P03372 whole entry): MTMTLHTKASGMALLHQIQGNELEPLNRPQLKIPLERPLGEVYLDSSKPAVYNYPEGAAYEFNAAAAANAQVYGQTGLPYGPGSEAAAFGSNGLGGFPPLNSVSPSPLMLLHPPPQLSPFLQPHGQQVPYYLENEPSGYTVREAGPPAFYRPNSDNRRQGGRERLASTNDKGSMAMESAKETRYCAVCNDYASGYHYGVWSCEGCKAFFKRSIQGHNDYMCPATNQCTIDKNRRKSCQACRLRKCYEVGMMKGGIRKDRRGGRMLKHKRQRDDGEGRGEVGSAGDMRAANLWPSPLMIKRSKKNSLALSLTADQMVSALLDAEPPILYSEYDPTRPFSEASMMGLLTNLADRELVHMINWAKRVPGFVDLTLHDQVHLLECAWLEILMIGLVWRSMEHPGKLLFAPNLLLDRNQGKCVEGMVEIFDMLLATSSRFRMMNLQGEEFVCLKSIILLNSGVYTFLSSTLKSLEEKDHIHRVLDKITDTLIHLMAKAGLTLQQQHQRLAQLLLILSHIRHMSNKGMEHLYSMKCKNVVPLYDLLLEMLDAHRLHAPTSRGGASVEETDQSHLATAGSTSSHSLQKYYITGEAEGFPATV
His6-ERα298-554 Y537S mutant (ERα ligand-binding domain), sequence (P03372 298-554 Y537S): as the sequence (P03372 298-554) above, with Y240S counted along it

Regarding `O=C1Cc2cc(C3=C(c4ccc(O[C@H]5CCN(CCCF)C5)cc4)c4ccc(O)cc4SC3)ccc2N1` [Example 51, 5-[4-[4-[(3S)-1-(3-fluoropropyl)pyrrolidin-3-yl]oxyphenyl]-7-hydroxy-2H-thiochromen-3-yl]indolin-2-one], the IC50 in assay [1] was 148 nM; in assay [2], 230 nM; in assay [3], 3600 nM; in assay [4], > 4000 nM; in assay [5], 91 nM; in assay [6] it was 350 nM. The DC50 at ERα in MCF7 cells turned out to be 12 nM. For the same compound, the “% Degradation at 3 μM” value on ERα in MCF7 cells was 85%.

As for `CC(C)(C)c1ccc(C2=C(c3ccc(O[C@H]4CCN(CCCF)C4)cc3)c3ccc(O)cc3SC2)cc1` [Example 52, 3-(4-tert-butylphenyl)-4-[4-[(3S)-1-(3-fluoropropyl)pyrrolidin-3-yl]oxyphenyl]-2H-thiochromen-7-ol], the IC50 in assay [1] is 3 nM; in assay [2] it was 41 nM; in assay [3], 2910 nM; in assay [4], > 4000 nM; in assay [5] it was 2 nM; in assay [6] it was 351 nM. For the same compound, at ERα in MCF7 cells, the DC50 is 1 nM. The “% Degradation at 3 μM” value on ERα in MCF7 cells turned out to be 84%.

On to `CCOc1nccc(C2=C(c3ccc(O[C@H]4CCN(CCCF)C4)cc3)c3ccc(O)cc3SC2)c1Cl` [Example 53, 3-(3-chloro-2-ethoxy-4-pyridyl)-4-[4-[(3S)-1-(3-fluoropropyl)pyrrolidin-3-yl]oxyphenyl]-2H-thiochromen-7-ol], for which the IC50 was 0.2 nM in assay [1]; 5 nM in assay [2]; 25 nM in assay [3]; 36 nM in assay [4]; 0.2 nM in assay [5]; 2 nM in assay [6]. Besides, the DC50 on ERα in MCF7 cells worked out at 0.2 nM. The “% Degradation at 3 μM” value on ERα in MCF7 cells is recorded as 84%.

Consider `Oc1ccc2c(c1)SCC(c1ccc(OC(F)(F)F)cc1)=C2c1ccc(O[C@H]2CCN(CCCF)C2)cc1` [Example 54, 4-[4-[(3S)-1-(3-fluoropropyl)pyrrolidin-3-yl]oxyphenyl]-3-[4-(trifluoromethoxy)phenyl]-2H-thiochromen-7-ol], for which the IC50 in assay [1] amounted to 3 nM; in assay [2], 21 nM; in assay [3], 2640 nM; in assay [4], 3030 nM; in assay [5], 3 nM; in assay [6], 246 nM. Moreover, the DC50 on ERα in MCF7 cells came to 1 nM. At ERα in MCF7 cells, the “% Degradation at 3 μM” value turned out to be 74%.

For the compound `Oc1ccc2c(c1)SCC(c1ccc(Cl)nc1F)=C2c1ccc(O[C@H]2CCN(CCCF)C2)cc1` [Example 55, 3-(6-chloro-2-fluoro-3-pyridyl)-4-[4-[(3S)-1-(3-fluoropropyl)pyrrolidin-3-yl]oxyphenyl]-2H-thiochromen-7-ol], the IC50 in assay [1] was 0.3 nM; in assay [2], 5 nM; in assay [3], 444 nM; in assay [4] it was 971 nM; in assay [5], 0.7 nM; in assay [6], 48 nM. In addition, the DC50 at ERα in MCF7 cells was 0.2 nM. Further, on ERα in MCF7 cells, the “% Degradation at 3 μM” value amounted to 88%.

As to `Cc1ccc(C2=C(c3ccc(O[C@H]4CCN(CCCF)C4)cc3)c3ccc(O)cc3SC2)c(Cl)n1` [Example 56, 3-(2-chloro-6-methyl-3-pyridyl)-4-[4-[(3S)-1-(3-fluoropropyl)pyrrolidin-3-yl]oxyphenyl]-2H-thiochromen-7-ol], the IC50 in assay [1] turned out to be 0.7 nM; in assay [2], 14 nM; in assay [3], 358 nM; in assay [4], 721 nM; in assay [5], 0.6 nM; in assay [6], 37 nM. Besides, the DC50 on ERα in MCF7 cells came out at 0.2 nM. On ERα in MCF7 cells, the “% Degradation at 3 μM” value came out at 86%.

For the compound `Cc1ccc(C2=C(c3ccc(O[C@H]4CCN(CCCF)C4)cc3)c3ccc(O)cc3[S+]([O-])C2)c(F)c1` (stereo partly drawn) [Example 57, 3-(2-fluoro-4-methyl-phenyl)-4-[4-[(3S)-1-(3-fluoropropyl)pyrrolidin-3-yl]oxyphenyl]-1-oxo-2H-thiochromen-7-ol], the IC50 in assay [1] is > 999 nM; in assay [2], > 999 nM; in assay [3], > 4000 nM; in assay [4], > 4000 nM; in assay [5], 33 nM; in assay [6], 1070 nM. The DC50 at ERα in MCF7 cells was found to be 3 nM. In addition, on ERα in MCF7 cells, the “% Degradation at 3 μM” value worked out at 89%.

With `CC(C)(C)OC(=O)N1CCOc2ccc(C3=C(c4ccc(O[C@H]5CCN(CCCF)C5)cc4)c4ccc(O)cc4SC3)cc21` [Example 59, tert-butyl 6-[4-[4-[(3S)-1-(3-fluoropropyl)pyrrolidin-3-yl]oxyphenyl]-7-hydroxy-2H-thiochromen-3-yl]-2,3-dihydro-1,4-benzoxazine-4-carboxylate], the IC50 in assay [1] was > 999 nM; in assay [2], > 999 nM; in assay [3], > 4000 nM; in assay [4], > 4000 nM; in assay [5], 27 nM; in assay [6] it was 879 nM. In addition, at ERα in MCF7 cells, the DC50 stood at 0.9 nM. Also, the “% Degradation at 3 μM” value at ERα in MCF7 cells worked out at 81%.

For the compound `Oc1ccc2c(c1)SCC(c1ccc(OCF)cc1)=C2c1ccc(O[C@H]2CCN(CCCF)C2)cc1` [Example 60, 3-[4-(fluoromethoxy)phenyl]-4-[4-[(3S)-1-(3-fluoropropyl)pyrrolidin-3-yl]oxyphenyl]-2H-thiochromen-7-ol], the IC50 in assay [1] stood at 0.4 nM; in assay [2] it was 3 nM; in assay [3] it was 103 nM; in assay [4] it was 215 nM; in assay [5], 0.5 nM; in assay [6] it was 9 nM. For the same compound, on ERα in MCF7 cells, the DC50 turned out to be 0.2 nM. Besides, the “% Degradation at 3 μM” value at ERα in MCF7 cells came out at 73%.

As for `Oc1ccc2c(c1)SCC(c1ccc(CF)cc1)=C2c1ccc(O[C@H]2CCN(CCCF)C2)cc1` [Example 61, 3-[4-(fluoromethyl)phenyl]-4-[4-[(3S)-1-(3-fluoropropyl)pyrrolidin-3-yl]oxyphenyl]-2H-thiochromen-7-ol], the IC50 in assay [1] amounted to 0.6 nM; in assay [2] it was 17 nM; in assay [3], 437 nM; in assay [4], 686 nM; in assay [5], 2 nM; in assay [6] it was 37 nM. Also, the DC50 at ERα in MCF7 cells worked out at 0.2 nM. For the same compound, the “% Degradation at 3 μM” value at ERα in MCF7 cells is 82%.

On to `Oc1ccc2c(c1)SCC(c1ccc(C(F)F)cc1F)=C2c1ccc(O[C@H]2CCN(CCCF)C2)cc1` [Example 62, 3-[4-(difluoromethyl)-2-fluoro-phenyl]-4-[4-[(3S)-1-(3-fluoropropyl)pyrrolidin-3-yl]oxyphenyl]-2H-thiochromen-7-ol], for which the IC50 in assay [1] came out at 0.2 nM; in assay [2], 6 nM; in assay [3], 271 nM; in assay [4], 523 nM; in assay [5], 0.4 nM; in assay [6], 27 nM. For the same compound, the DC50 on ERα in MCF7 cells stood at 0.2 nM. The “% Degradation at 3 μM” value at ERα in MCF7 cells was 80%.

Consider `CCOc1ccc(C2=C(c3ccc(O[C@H]4CCN(CCCF)C4)cc3)c3ccc(O)cc3SC2)c(F)c1Cl` [Example 63, 3-(3-chloro-4-ethoxy-2-fluoro-phenyl)-4-[4-[(3S)-1-(3-fluoropropyl)pyrrolidin-3-yl]oxyphenyl]-2H-thiochromen-7-ol], for which the IC50 in assay [1] was 5 nM; in assay [2] it was > 999 nM; in assay [3], 2450 nM; in assay [4] it was > 4000 nM; in assay [5], 5 nM; in assay [6], 318 nM. At ERα in MCF7 cells, the DC50 turned out to be 0.3 nM. In addition, on ERα in MCF7 cells, the “% Degradation at 3 μM” value was determined as 86%.

(Values after patent US11149031B2, “Substituted N-(3-fluoropropyl)-pyrrolidine compounds, processes for their preparation and therapeutic uses thereof” (SANOFI, priority 2016, dated 2021).)
